Measurements reported in patent US9884841B2, “Small molecule inhibitors of Mcl-1 and uses thereof” (The Regents of the University of Michigan, priority 2015, dated 2018).

The compounds below were run against Mcl-1 (Homo sapiens, UniProt Q07820) (assay: FP based binding assay to Mcl-1 (Bid BH3 peptide probe)). Conditions: Binding affinity of Mcl-1 inhibitors using FP based assay, Table 1.
Sequence of Mcl-1 (Q07820 whole entry): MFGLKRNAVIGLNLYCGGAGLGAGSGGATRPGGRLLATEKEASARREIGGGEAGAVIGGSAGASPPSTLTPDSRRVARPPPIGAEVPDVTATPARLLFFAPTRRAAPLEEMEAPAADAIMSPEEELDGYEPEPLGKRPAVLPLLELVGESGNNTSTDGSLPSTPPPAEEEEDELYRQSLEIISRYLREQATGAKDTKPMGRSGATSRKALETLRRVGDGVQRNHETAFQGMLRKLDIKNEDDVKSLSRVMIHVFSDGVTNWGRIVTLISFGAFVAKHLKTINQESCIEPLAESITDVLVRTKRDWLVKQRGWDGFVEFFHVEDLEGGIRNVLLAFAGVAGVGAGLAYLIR

Point of comparison: `O=C(CCSc1ccc(NS(=O)(=O)c2ccccc2)c(C(=O)O)c1)Nc1ccccc1` [Compound 410], Ki 233 ± 21 nM. Against it:
- O=C(O)c1cc(SCCc2ccccc2)ccc1NS(=O)(=O)N1CCN(c2ccccc2)CC1 [Compound 396, 5-(Phenethylthio)-2-(1-phenylpiperazine-4-sulfonamido)benzoic acid] — within error, 200 ± 30 nM
- CC(C)c1cc(NS(=O)(=O)c2ccc(Oc3ccccc3)cc2)c(C(=O)O)cc1SCCc1ccccc1 [Compound 476, 4-isopropyl-5-(phenethylthio)-2-(4-phenoxyphenylsulfonamido)benzoic acid] — 6.7-fold lower, 35 ± 13 nM
- COC(=O)c1cc(-c2ccc(COc3cccc(C(F)(F)F)c3)cc2)c(C(C)C)cc1NS(=O)(=O)c1ccc2ccccc2c1 [Compound 482, methyl 6-isopropyl-4-(naphthalene-2-sulfonamido)-4′-((3-(trifluoromethyl)phenoxy)methyl)-[1,1′-biphenyl]-3-carboxylate] — higher, > 2000 nM
- Cc1cccc(-c2cc(NS(=O)(=O)N3CCN(c4ccc(C(C)(C)C)cc4)CC3)c(C(=O)O)cc2SCCC(=O)Nc2ccccc2)c1 [Compound 479] — 3.5-fold lower, 66 ± 27 nM
- O=C(CCSc1ccc(NS(=O)(=O)N2CCN(c3ccccc3)CC2)c(C(=O)O)c1)Nc1ccccc1 [Compound 429] — 9.6-fold higher, 2240 ± 431 nM
- O=C(O)c1cc(-c2ccccc2COc2cccc(C(F)(F)F)c2)ccc1NS(=O)(=O)c1ccc2ccccc2c1 [Compound 468, 4-(naphthalene-2-sulfonamido)-2′-((3-(trifluoromethyl)phenoxy)methyl)-[1,1′-biphenyl]-3-carboxylic acid] — 4.7-fold lower, 50 ± 11 nM
- O=C(O)c1cc(-c2ccccc2COc2cccc3ccccc23)ccc1NS(=O)(=O)c1ccc2ccccc2c1 [Compound 473, 2′-((naphthalen-1-yloxy)methyl)-4-(naphthalene-2-sulfonamido)-[1,1′-biphenyl]-3-carboxylic acid] — 7.5-fold lower, 31 ± 9 nM
- O=C(O)c1cc(SCCc2ccccc2)ccc1NS(=O)(=O)Cc1ccc(Cl)cc1 [Compound 398] — within error, 241 ± 89 nM
- CC(C)c1cc(NS(=O)(=O)c2ccc3ccccc3c2)c(C(=O)O)cc1SCCc1ccccc1 [Compound 478, 4-isopropyl-2-(naphthalene-2-sulfonamido)-5-(phenethylthio)benzoic acid] — 3.3-fold lower, 70 ± 21 nM
- O=C(O)c1ccc(SCCc2ccccc2)cc1NS(=O)(=O)c1ccccc1 [Compound 702, 4-(Phenethylthio)-2-(phenylsulfonamido)benzoic acid] — 10-fold higher, 2360 ± 116 nM
- COC(=O)c1cc(-c2ccc(COc3cccc(C(F)(F)F)c3)cc2)c(C(C)C)cc1NS(=O)(=O)c1ccc(Oc2ccc(F)cc2)cc1 [Compound 481, methyl 4-(4-(4-fluorophenoxy)phenylsulfonamido)-6-isopropyl-4′-((3-(trifluoromethyl)phenoxy)methyl)-[1,1′-biphenyl]-3-carboxylate] — higher, > 2000 nM
- O=C(O)c1cc(SCCc2ccccc2)ccc1NS(=O)(=O)c1ccccc1-c1ccccc1 [Compound 458, 2-([1,1′-biphenyl]-2-ylsulfonamido)-5-(phenethylthio)benzoic acid] — 2.9-fold lower, 79 ± 25 nM
- CC(C)(C)c1ccc(N2CCN(C(=O)CCc3cccc(-c4ccc(C(=O)O)c(NS(=O)(=O)N5CCN(c6ccc(C(C)(C)C)cc6)CC5)c4)c3)CC2)cc1 [Compound 484] — 5.5-fold lower, 42 ± 17 nM
- O=C(O)c1cc(SCCc2ccccc2)ccc1NS(=O)(=O)c1ccc(-c2ccccc2)cc1 [Compound 378, 2-([1,1′-biphenyl]-4-ylsulfonamido)-5-(phenethylthio)benzoic acid] — 4.9-fold lower, 48 ± 12 nM
- CC(C)(C)c1ccc(N2CCN(S(=O)(=O)Nc3ccc(SCCC(=O)Nc4ccccc4)cc3C(=O)O)CC2)cc1 [Compound 435] — within error, 245 ± 48 nM
- O=C(O)c1cc(SCCc2ccccc2)ccc1NS(=O)(=O)c1ccccc1Br [Compound 386, 2-(2-bromophenylsulfonamido)-5-(phenethylthio)benzoic acid] — 1.6-fold higher, 381 ± 66 nM
- Nc1ccc(-c2ccc(COc3cccc(C(F)(F)F)c3)cc2)cc1C(=O)O [Compound 469, 4-amino-4′-((3-(trifluoromethyl)phenoxy)methyl)-[1,1′-biphenyl]-3-carboxylic acid] — 10-fold higher, 2360 ± 80 nM

Same assay, conditions: relative to 382

For `CC(C)c1cc(NS(=O)(=O)c2ccc3ccccc3c2)c(C(=O)O)cc1SCCc1ccccc1` [Compound 478, 4-isopropyl-2-(naphthalene-2-sulfonamido)-5-(phenethylthio)benzoic acid], the “improvement in comparison with 382” value was 2.5 fold.
